Measurements taken from PMC6943742, “Peptide/Peptoid Hybrid Oligomers: The Influence of Hydrophobicity and Relative Side-Chain Length on Antibacterial Activity and Cell Selectivity” (Molecules, 2019).
Values after ≈ are worked out from the molar mass of the structure shown. Where two headings read alike, the source gives them in different places. Non-standard residues stand in square brackets, D forms with d. Residues, ends and D or L forms follow the SMILES beside them. N(5-aminopentyl)Gly = NCCCCCNCC(=O)O; Gly(NCH2CH2Ph) = O=C(O)CNCCc1ccccc1; hPhe = N[C@@H](CCc1ccccc1)C(=O)O; hLys = NCCCCC[C@H](N)C(=O)O; Nphe = O=C(O)CNCc1ccccc1; Orn = NCCC[C@H](N)C(=O)O; Dab = NCC[C@H](N)C(=O)O

How the values were obtained:
[1] = Relative hydrophobicity by RP-HPLC (% MeCN at peak elution); assay type: physicochemical; conditions: RP-HPLC gradient 0 → 60% B during 10 min; % MeCN at peak elution calculated from retention time
Protocol: The relative hydrophobicity of each peptidomimetic was measured by reverse-phase high-performance liquid chromatography (RP-HPLC). Typically, the RP-HPLC retention time (or percentage acetonitrile at peak elution) constitutes the preferred measure that allows for comparison of relative hydrophobicity, while log P values of polycationic peptides or peptidomimetics normally are considered unsuitable due to the extreme hydrophilic nature of such compounds [11, 45, 57, 58, 59, 60]. […] For both subgroups III (with cationic amino acid residues and the peptoid analogue of Phe, NPhe, i.e., 9–12) and IV (with cationic amino acid residues and the peptoid analogue of hPhe, NhPhe, i.e., 13–16) only minor differences in hydrophobicity were seen. These observations infer that, when the cationic residues are of a peptoid nature, the side-chain length of these has a […] influence on the hydrophobicity. […] Thus, introduction of additional six methylene groups results, as expected, in increased hydrophobicity.
Starting materials and solvents were purchased from commercial suppliers (Iris Biotech, Markredwitz, Germany; Fluorochem, Hadfield, United Kingdom; and Merck, Darmstadt, Germany) and used without further purification. Water used for analytical and preparative high-performance liquid chromatography (HPLC) was filtered through a 0.22-μm Millipore membrane filter. Purity and retention time of each peptidomimetic were determined by analytical UHPLC by using a Phenomenex Luna C18(2) HST column (100 mm × 3 mm; particle size: 2.5 μm; pore size: 100 Å) on a Shimadzu Prominence and Shimadzu Nexera system using an aqueous acetonitrile (MeCN) gradient with 0.1% trifluoroacetic acid (TFA) added (eluent A: 5:95 MeCN–H2O + 0.1% TFA, eluent B: 95:5 MeCN–H2O + 0.1% TFA); a flow rate of 0.5 mL/min was used. For elution of peptidomimetics, a linear gradient of 0% to 60% B during 10 min was used with UV detection at λ = 220 nm. […] For each peptidomimetic, the percentage of MeCN at peak elution was calculated from the retention time by using the following formula:(1) %MeCN = 0.95 (0.6Rt/10 min.) + 0.05 (1−0.6Rt/10 min.).

E. coli ATCC 25922 = assay type: cell-based
Protocol: (§1) MIC values were evaluated by using the modified Hancock lab protocol in non-binding polystyrene microtitre plates, with bacterial suspensions of ∼2 × 10^5 CFU/mL in Mueller-Hinton broth (Difco, Sparks MD, USA), with Mg^2+ and Ca^2+ concentrations of 4 mg/L each. The compounds were dissolved in H2O and diluted in 0.01% acetic acid, 0.2% BSA (final concentration). Aliquots of 11 µL of 10 × test compounds were then transferred to the appropriate wells with bacterial suspensions. For preparation and transfer of the solutions of the compounds, low-binding sterile tubes and tips (Axygen, Union City CA, USA) were used. After 20 h incubation of covered plates at 35 °C (±2 °C) with circular shaking at 220 rpm, the MICs were read. The antibacterial activity of peptidomimetics was tested against E. coli ATCC 25922, K. pneumoniae ATCC 13883, P. aeruginosa ATCC 27853, P. aeruginosa PAO1, A. baumannii ATCC 19606, S. aureus ATCC 29213, and E. faecalis ATCC 29212.

E. faecalis ATCC 29212 = assay type: cell-based
Protocol: as §1

K. pneumoniae ATCC 13883 = assay type: cell-based
Protocol: as §1

P. aeruginosa ATCC 27853 = assay type: cell-based
Protocol: as §1

P. aeruginosa PAO1 = assay type: cell-based
Protocol: as §1

S. aureus ATCC 29213 = assay type: cell-based
Protocol: as §1

[2] = system: HepG2 cell line ATCC HB-8065; test: in vitro; assay type: cell-based; conditions: 48 h
Protocol: Side effects affecting cell viability were estimated on the HepG2 cell line ATCC HB-8065. In brief, HepG2 cells were seeded in flat-bottomed 96-well plates at a concentration of 5000 cells per well. At 80−90% confluency, the cells were incubated for 24 h in a humidified incubator (5% CO2, 37 °C). The medium was removed, and the cells were incubated for 48 h in a humidified incubator (5% CO2, 37 °C) with compounds in two-fold serial dilutions. An MTT assay was then performed as previously described. In brief, after incubation with the test compounds, the culture medium was removed and fresh medium with 0.2 mg/mL MTT was added in each well of the plate. After incubation (3 h, 37 °C, 5% CO2), the medium with MTT was removed, and 200 μL dimethyl sulfoxide were added at once to each sample. Absorbance of MTT was measured using spectrophotometer TECAN Infinite M1000 at 540 nm. The relative viability was calculated by using the formula: ODtreated cells × 100/ODcontrol cells. The IC50 values are calculated by using the program Graph Pad Prism® 5.0. For all compounds, the test range was 10–1280 μg/mL.

in vitro = assay type: cell-based; conditions: human, Hemolytic Activity (percentage hemolysis)
Protocol: The lysis of human red blood cells was measured as previously described, with modifications. In brief, freshly drawn human red blood cells (hRBCs) were washed three times with PBS buffer and centrifuged two times for 5 min at 2500 rpm. A two-fold serial dilution of peptidomimetics in PBS buffer was added to each well in a sterile polypropylene V-bottom 96-well plate to the total volume of 75 μL. A 0.5% v/v hRBC suspension (75 μL in PBS buffer) was added to each well to reach a final volume of 150 μL in each well. The plate was incubated (37 °C) for 60 min, and then the cells were subsequently pelleted by centrifugation at 1000 rpm for 5 min. The supernatants (50 μL) were transferred to clear, flat-bottomed plastic 96-well plates. The concentration of hemoglobin was detected by measuring the OD at 405 nm. The OD of cells incubated with 0.1% SDS defined 100% hemolysis, while the OD of cells incubated with PBS buffer defined 0% hemolysis. The concentrations tested were 200, 400, and 800 μg/mL (only average values for the highest concentration are stated in Table 2).

A. baumannii ATCC 19606 = assay type: cell-based; conditions: A. baumannii ATCC 19606, Gram-negative; 20 h, Mueller-Hinton broth
Protocol: as §1

| Molecule | Hydrophobicity (% MeCN at elution) [1] | MIC (E. coli ATCC 25922; ATCC 25922, 20 h) | MIC (E. faecalis ATCC 29212; ATCC 29212, 20 h) | MIC (K. pneumoniae ATCC 13883; ATCC 13883, 20 h) | MIC (P. aeruginosa ATCC 27853; ATCC 27853, 20 h) | MIC (P. aeruginosa PAO1; PAO1, 20 h) | MIC (S. aureus ATCC 29213; ATCC 29213, 20 h) | IC50 for inhibiting growth of HepG2 cells [2] | hemolysis at 60 min, 800 µg/mL (in vitro) | MIC (A. baumannii ATCC 19606) | MIC (E. coli ATCC 25922; E. coli ATCC 25922, Gram-negative, 20 h, Mueller-Hinton broth) | MIC (E. faecalis ATCC 29212; E. faecalis ATCC 29212, Gram-positive, 20 h, Mueller-Hinton broth) | MIC (K. pneumoniae ATCC 13883; K. pneumoniae ATCC 13883, Gram-negative, 20 h, Mueller-Hinton broth) | MIC (P. aeruginosa ATCC 27853; P. aeruginosa ATCC 27853, Gram-negative, 20 h, Mueller-Hinton broth) | MIC (P. aeruginosa PAO1; P. aeruginosa PAO1, Gram-negative, 20 h, Mueller-Hinton broth) | MIC (S. aureus ATCC 29213; S. aureus ATCC 29213, Gram-positive, 20 h, Mueller-Hinton broth) |
| --- | --- | --- | --- | --- | --- | --- | --- | --- | --- | --- | --- | --- | --- | --- | --- | --- |
| NCCCCCNCC(=O)N[C@@H](CCc1ccccc1)C(=O)N(CCCCCN)CC(=O)N[C@@H](CCc1ccccc1)C(=O)N(CCCCCN)CC(=O)N[C@@H](CCc1ccccc1)C(=O)N(CCCCCN)CC(=O)N[C@@H](CCc1ccccc1)C(=O)N(CCCCCN)CC(=O)N[C@@H](CCc1ccccc1)C(=O)N(CCCCCN)CC(=O)N[C@@H](CCc1ccccc1)C(N)=O [Peptidomimetic 8] (H-[N(5-aminopentyl)Gly][hPhe][N(5-aminopentyl)Gly][hPhe][N(5-aminopentyl)Gly][hPhe][N(5-aminopentyl)Gly][hPhe][N(5-aminopentyl)Gly][hPhe][N(5-aminopentyl)Gly][hPhe]-NH2) | 40.9% | 2 µg/mL (≈ 1.09 µM) | >64 µg/mL | 64 µg/mL (≈ 34.8 µM) | 64 µg/mL (≈ 34.8 µM) | 64 µg/mL (≈ 34.8 µM) | >64 µg/mL | 266 µg/mL | 9% |  |  |  |  |  |  |  |
| NCC[C@H](NC(=O)CN(Cc1ccccc1)C(=O)[C@H](CCN)NC(=O)CN(Cc1ccccc1)C(=O)[C@H](CCN)NC(=O)CN(Cc1ccccc1)C(=O)[C@H](CCN)NC(=O)CN(Cc1ccccc1)C(=O)[C@H](CCN)NC(=O)CN(Cc1ccccc1)C(=O)[C@@H](N)CCN)C(=O)N(CC(N)=O)Cc1ccccc1 [Peptidomimetic 9] (H-[Dab][Nphe][Dab][Nphe][Dab][Nphe][Dab][Nphe][Dab][Nphe][Dab][Nphe]-NH2) |  | 2 to 4 µg/mL | >64 µg/mL | 32 to 64 µg/mL | 1 µg/mL (≈ 0.666 µM) | 2 µg/mL (≈ 1.33 µM) | >64 µg/mL | 326 µg/mL | 79% |  |  |  |  |  |  |  |
| NCCC[C@H](NC(=O)CN(Cc1ccccc1)C(=O)[C@H](CCCN)NC(=O)CN(Cc1ccccc1)C(=O)[C@H](CCCN)NC(=O)CN(Cc1ccccc1)C(=O)[C@H](CCCN)NC(=O)CN(Cc1ccccc1)C(=O)[C@H](CCCN)NC(=O)CN(Cc1ccccc1)C(=O)[C@@H](N)CCCN)C(=O)N(CC(N)=O)Cc1ccccc1 [Peptidomimetic 10] (H-[Orn][Nphe][Orn][Nphe][Orn][Nphe][Orn][Nphe][Orn][Nphe][Orn][Nphe]-NH2) |  | 4 to 8 µg/mL | >64 µg/mL | >64 µg/mL | 2 to 4 µg/mL | 4 to 8 µg/mL | >64 µg/mL | 923 µg/mL | 10% |  |  |  |  |  |  |  |
| NCCCCC[C@H](NC(=O)CN(CCc1ccccc1)C(=O)[C@H](CCCCCN)NC(=O)CN(CCc1ccccc1)C(=O)[C@H](CCCCCN)NC(=O)CN(CCc1ccccc1)C(=O)[C@H](CCCCCN)NC(=O)CN(CCc1ccccc1)C(=O)[C@H](CCCCCN)NC(=O)CN(CCc1ccccc1)C(=O)[C@@H](N)CCCCCN)C(=O)N(CCc1ccccc1)CC(N)=O [Peptidomimetic 16] (H-[hLys][Gly(NCH2CH2Ph)][hLys][Gly(NCH2CH2Ph)][hLys][Gly(NCH2CH2Ph)][hLys][Gly(NCH2CH2Ph)][hLys][Gly(NCH2CH2Ph)][hLys][Gly(NCH2CH2Ph)]-NH2) | 41.1% | 4 µg/mL (≈ 2.18 µM) | >64 µg/mL | >64 µg/mL | 16 µg/mL (≈ 8.71 µM) | 32 µg/mL (≈ 17.4 µM) | >64 µg/mL | 410 µg/mL | 9% |  |  |  |  |  |  |  |
| Colistin [reference compound] |  |  |  |  |  |  |  |  |  | 0.5 µg/mL | 0.125 to 0.25 µg/mL | >64 µg/mL | 0.25 µg/mL | 0.125 to 0.25 µg/mL | 0.5 µg/mL | >64 µg/mL |
